{
  "source": "paper PMC7070283",
  "about": "“Effect of Copper on the Mitochondrial Carnitine/Acylcarnitine Carrier Via Interaction with Cys136 and Cys155. Possible Implications in Pathophysiology” (Molecules, 2020)",
  "biological_target": "T1, native carnitine/acylcarnitine carrier (CAC) (Rattus norvegicus, UniProt P97521)",
  "T1 construct": "the native protein extracted from rat liver mitochondria; from tissue; host or cells: rat liver mitochondria",
  "T1 sequence (P97521 1-301)": "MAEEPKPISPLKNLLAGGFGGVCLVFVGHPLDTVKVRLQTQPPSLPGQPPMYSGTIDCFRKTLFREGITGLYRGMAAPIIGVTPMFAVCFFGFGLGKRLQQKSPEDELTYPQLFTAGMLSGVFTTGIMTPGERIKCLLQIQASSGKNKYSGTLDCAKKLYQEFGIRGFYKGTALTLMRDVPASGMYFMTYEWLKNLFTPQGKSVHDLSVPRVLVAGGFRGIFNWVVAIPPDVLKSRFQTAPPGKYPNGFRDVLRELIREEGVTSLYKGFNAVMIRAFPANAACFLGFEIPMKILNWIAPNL",
  "test": "[3H]carnitine/carnitine antiport in proteoliposomes reconstituted with native CAC extracted from rat liver mitochondria",
  "assay_type": "biochemical",
  "conditions": "intact rat liver mitochondria incubated 1 h with CuCl2 (50 µM) or GSH (5 mM), then CAC extracted and reconstituted",
  "protocol": "Figure 2 Dose-response analysis of copper effect on the native CAC. Proteoliposomes reconstituted with the CAC extracted from rat liver mitochondria were incubated with (○) CuCl2 or (●) CuCl at the indicated concentrations for 1 min, and then the transport activity was measured by adding 0.1 mM [^3H]carnitine and stopped after 10 min as described in Materials and Methods. Percent of residual activity with respect to the control, without copper treatment, is reported. The values are the means ± SD from three independent experiments.\nThe recombinant CAC (WT and mutant) proteins were used for proteoliposome formation as previously described. For the experiments with the native protein, rat liver mitochondria were first purified using the standard procedure of cell disruption and differential centrifugation. […]\nTransport was started by adding 0.1 mM [^3H]carnitine to proteoliposome samples and, at the indicated time interval stopped by 1.5 mM NEM. […] After terminating the transport reaction, the external substrate was removed by chromatography on Sephadex G-75 columns, and the intraliposomal radioactivity was measured. Transport was measured at 25 °C. […] Transport rates were measured in 5 min, i.e., within the initial linear range of the time course.",
  "data": [
    {"compound": "N[C@@H](CCC(=O)N[C@@H](CS)C(=O)NCC(=O)O)C(=O)O", "note": "[GSH, reduced glutathione]", "values": [
      {"measurement": "effect on transport with respect to protein from untreated mitochondria", "result": "did not exert any appreciable effect"}
    ]}
  ]
}
